We go through five molecules from paper PMC8279484 (Journal of Medicinal Chemistry, 2021).

One assay relates to NF-κB. The experiment in a line: LPS-induced NF-κB-driven luciferase gene reporter assay in THP-1 Lucia monocytes. It counts as cell-based, human. As to conditions: for Rel. Slope: HS relative to LXA4 (1); for Potency Rel. Pot.: IC50 relative to LXA4 (1); for Efficacy Rel. Eff.: Imax relative to LXA4 (1); for Imax (%): maximal % inhibition of LPS (50 ng/mL)-stimulated NF-κB luciferase activity, 30 min pretreatment; for Imax (%) / reduction of LPS-induced NF-κB-driven luciferase activity: 1 pM–1 μM; for (Single component) Rel. Score: Rel. Pot. / (Single component) Rel. Score: Rel. Sl.: score relative to LXA4 (1); for Slope HS (Hill–Slope): slope of concentration–response curve; for (Aggregate) Rel. PD Score: sum of efficacy, potency, slope scores relative to LXA4 (1); for IC50: Homo sapiens, THP-1; for reduction of LPS-induced NF-κB-driven luciferase activity: approximate extent. As to the method:
Mycoplasma-free THP-1-Lucia NF-κB cells were grown in an RPMI 1640 (Gibco) medium containing 2 mM L-glutamine, 1.50 g/L sodium bicarbonate, 4.50 g/L glucose, 10 mM N-(2-hydroxyethyl)piperazine-N′-ethanesulfonic acid (HEPES), and 1 mM sodium pyruvate. Then, 10% heat-inactivated fetal bovine serum (FBS) (30 min at 56 °C), 100 μg/mL Normocin, and Pen-Strep (50 U/mL to 50 μg/mL) were also added to the growth media. As THP-1-Lucia cells were resistant to Zeocin, the latter was used as a selective antibiotic (a high dose, i.e., 100 μg/mL, was alternated every 2 weeks with a low dose, i.e., 10 μg/mL).
LXA41 and all of the tested sLXms were dissolved in ethanol and further diluted in a culture medium (final ethanol concentration 0.1%; equivalent concentrations were used as the vehicle control). Prior to in vitro experiments, THP-1-Lucia NF-κB cells were harvested and plated at 1 × 10^5 cells/well on 96-well plates and left to settle in the incubator at 37 °C, 95% humidity, and 5% CO2, in 0.1% FBS-containing media, pretreated for 30 min with increasing doses of LXA41, sLXms (from 10^–12 to 10^–6 M), or appropriate controls, followed by stimulation with 50 ng/mL LPS for 24 h.
NFκB activity was monitored in the human THP-1 monocytic leukemia cell line containing a stably integrated NF-κB-inducible Lucia reporter construct (as previously reported).[21] When stimulated with LPS, the transcription factor NF-κB is activated, upregulating the synthesis of proinflammatory mediators, thus bringing about an inflammatory response. In these cells, NF-κB activation is linked to a […] luciferase gene and can be measured using luminescence.
Heat-killed listeria monocytogenes (HKLM) (10^8/mL) was used as a positive control.[28] The levels of NF-κB-induced Luciferase were then measured in a culture supernatant using QUANTI-Luc as the detection reagent, and measurements were taken on a bioluminescence reader.
After 24 h, the levels of NF-κB-induced Lucia were assayed in a cell culture supernatant using QUANTI-Luc, as a detection reagent, on a bioluminescence reader (Synergy HT, BioTek Instruments, Inc. Vermont). Aliquots of the supernatant were retained for subsequent cytokine and LDH assays. Cellular proteins were extracted with a radioimmunoprecipitation assay (RIPA) buffer (Thermo Fisher, Ireland), supplemented with protease inhibitors (Sigma-Aldrich, Ireland). Lysates were clarified by centrifugation (3200g, 10’, 4 °C) to remove cell debris, and the cell protein level was quantified by performing a bicinchoninic acid (BCA) assay (as per the manufacturer’s instructions) reading the protein absorbance at 570 nm, using a spectrophotometer (SPECTRAMAX M2, Molecular Devices (U.K.) Limited). A “relative luminescence unit” (RLU) was obtained using the average value of the lum/abs ratio of two replicates.
The “coding” of the heat-map indicates the arbitrary criteria to assign points to each single PD component (efficacy = Imax or Emax; potency = IC50 or EC50; slope = HS) to generate a final (aggregate) relative PD score. […] If a single PD component was equal to the reference level (x = 1), then the single-component relative score was arbitrarily set to 0 (gray). If a single PD component was smaller than the reference level (x < 1), then the single-component relative score was arbitrarily set to −1 (light red) or −2 (dark red). If the curve of a single PD component was best fitting to a flat line (x = 0), then the single-component relative score was arbitrarily set to −4 (purple) (Table S1).
On the technique in general: Reporter assays use an easily measured gene product as a stand-in for the process of interest.

The subject of the next assay is C57bl/6 mice. The experiment in a line: Murine carrageenan-induced paw edema. Also noted: Paw swelling Index: Mean: unit not given here. The class given is in vivo, mouse. The conditions noted are these: for % reduction relative to carageenan-induced level / % relative to carageenan-induced level: (R)-6, (R)-17 2 μg/kg, Naproxen 50 mg/kg p.o.; for % relative to carageenan-induced level: Veh = 100; for effect on inflammatory response (paw swelling), in words / Paw swelling Index: Mean: (R)-6, (R)-17 2 μg/kg ip, Naproxen 50 mg/kg po; for Paw swelling Index: Mean: n = 3. The method, then: Then, 50 μL of 1% carrageenan was injected with an equivalent volume of saline injected into the contralateral paw. Inflammation was presented as the difference in paw thickness over time using gauge (POCO 2T; Kroeplin, GmbH, Surrey, U.K.). Data are presented as mean ± SEM, n = 3 mice/treatment group.
On the technique in general: Carrageenan injected into the paw causes an acute inflammation.

For another assay, the system named is wild-type HEK-293 cells. The experiment in a line: Intracellular calcium flux in wild-type HEK-293 (specificity control). The class given is cell-based, human. As to the method:
To explore the mechanism of action through which the sLXm lead compound exerts the effects seen here, its interaction with the ALX/FPR2 receptor was investigated and agonist-induced intracellular calcium transients were measured using an engineered cell line stably overexpressing the ALX/FPR2 receptor and the Gαq subunit coupled to it (Figure S6). Wild-type HEK cells were used as controls, to verify the specificity of the agonism toward ALX/FPR2, as previously reported.[36] Briefly, prior to cell plating, sterile 96-well plates (black-sided with optically clear glass flat bottoms) were PDL-coated overnight. Subsequently, 2 × 10^5 wild-type cells and overexpressed cells/well were cultured for 18 h in DMEM complete media (containing Ca^2+ and Mg^2+) to facilitate adherence prior to labeling with Fluo-4 dye. After 1 h of incubation at 37 °C with Fluo-4, cells were gently washed twice and placed in 100% Hanks’ balanced salt solution (HBSS; 37 °C) before reading the fluorescence (485/535 nm), using a spectrophotometer conjugated with an injection system (Clariostar BMG LABTECH plate reader), allowing addition to the cells of controls (1 mM ATP, a GPCR purinergic agonist, 2 nM Wp, a synthetic ALX/FPR2 agonist) or experimental treatments [10 pM, 1 nM, and 100 nM LXA41 or (R)-6].
On the technique in general: A change in cytosolic calcium serves as a functional read-out for many receptors and channels.

The mark [1] stands for this setting: LPS 50 ng/mL, 24 h, read-out: Potency IC50.

SMILES strings stand for the structures. Like-named read-outs stand apart in the source and are kept apart here.

For the molecule `CCCCC[C@@H](O)c1c(/C=C/[C@@H](O)[C@@H](O)CCCC(=O)OC)nc(C)n1C` [Compound 5, imidazolo-LXA4], in the assay with NF-κB, the “Rel. Slope” value is listed as -9, the “Potency Rel. Pot.” value is on record as 300, the “Efficacy Rel. Eff.” value is 1.83 and the “(Single component) Rel. Score: Rel. Pot.” value is 2 (x ≥ 5). In addition, in the assay with NF-κB, the “(Single component) Rel. Score: Rel. Sl.” value is 1 (1 < x < 10), the “Slope HS (Hill–Slope)” value came out at 90 and the “(Aggregate) Rel. PD Score” value is listed as 5. Besides, the “Imax (%)” value in the assay on NF-κB (24 h) is given as 44 ± 9%.

`CCCCC[C@@H](O)c1nc2ccccc2nc1/C=C/[C@H]1OC(C)(C)O[C@H]1CCCC(=O)OC` [(R)-17, Methyl 4-((4S,5R)-5-((E)-2-(3-((R)-1-Hydroxyhexyl)quinoxalin-2-yl)vinyl)-2,2-dimethyl-1,3-dioxolan-4-yl)butanoate]: in the assay on NF-κB, the “Rel. Slope” value came out at 0, the “Potency Rel. Pot.” value is given as 60, the “Efficacy Rel. Eff.” value was 0.75 and the “reduction of LPS-induced NF-κB-driven luciferase activity” value is given as “least effective”. In addition, in the assay with NF-κB, the “(Single component) Rel. Score: Rel. Pot.” value is recorded as 2 (x ≥ 5), the “(Single component) Rel. Score: Rel. Sl.” value is listed as -4 (x = 0), the “Slope HS (Hill–Slope)” value was 0 and the “(Aggregate) Rel. PD Score” value is reported as -3. For the same molecule, the IC50 (commonly the concentration at which inhibition is half-maximal) with NF-κB (setting [1]) worked out at 0.001 nM. In the assay with NF-κB (24 h), the “Imax (%)” value worked out at 18 ± 7%. In addition, in the assay with C57bl/6 mice (4h), the “% reduction relative to carageenan-induced level” value is 3% and the “% relative to carageenan-induced level” value was determined as 103%. Also, the “% relative to carageenan-induced level” value in the assay on C57bl/6 mice (8h) stood at 84%. Moreover, in the assay on C57bl/6 mice (24h), the “% reduction relative to carageenan-induced level” value is reported as -8% and the “% relative to carageenan-induced level” value was determined as 92%. Further, in the assay on C57bl/6 mice (48h), the “% reduction relative to carageenan-induced level” value is 49% and the “% relative to carageenan-induced level” value was 149%. Also, in the assay with C57bl/6 mice (72h), the “% reduction relative to carageenan-induced level” value was found to be 120% and the “% relative to carageenan-induced level” value stood at 220%. In addition, the “effect on inflammatory response (paw swelling), in words” value with C57bl/6 mice is on record as “no effect”. Also, in the assay on C57bl/6 mice (Time 4h, 1% carrageenan), the “Paw swelling Index: Mean” value came out at 0.07. Besides, in the assay with C57bl/6 mice (Time 8h), the “Paw swelling Index: Mean” value is on record as 0.33. For the same molecule, the “Paw swelling Index: Mean” value in the assay on C57bl/6 mice (Time 24h) is given as 0.80. Moreover, in the assay with C57bl/6 mice (Time 48h), the “Paw swelling Index: Mean” value is given as 0.60. Besides, the “Paw swelling Index: Mean” value in the assay on C57bl/6 mice (Time 72h) was 0.22.

Turning to `CCCCCCC[C@H](O)c1nc2ccccc2nc1/C=C/[C@@H](O)[C@@H](O)CCCC(=O)OC` [(S)-8, Methyl (5S,6R,E)-5,6-Dihydroxy-8-(3-((S)-1-hydroxyoctyl)quinoxalin-2-yl)oct-7-enoate], in the assay with NF-κB, the “Rel. Slope” value turned out to be 0, the “Potency Rel. Pot.” value is reported as 6, the “Efficacy Rel. Eff.” value was determined as 0.96 and the “reduction of LPS-induced NF-κB-driven luciferase activity” value is recorded as 10–20%. In the assay with NF-κB, the “(Single component) Rel. Score: Rel. Pot.” value is 2 (x ≥ 5), the “(Single component) Rel. Score: Rel. Sl.” value is reported as -4 (x = 0), the “Slope HS (Hill–Slope)” value was found to be 0 and the “(Aggregate) Rel. PD Score” value is given as -2. The IC50 in the assay on NF-κB (setting [1]) was determined as 0.01 nM. Besides, the “IC50 (range in words)” value on NF-κB (LPS 50 ng/mL, 24 h) is reported as ““pM” range”. For the same molecule, the “Imax (%)” value in the assay with NF-κB (24 h) amounted to 23 ± 8%.

Consider `CCCCC[C@@H](O)c1nc2ccccc2nc1/C=C/[C@@H](O)[C@@H](O)CCCC(=O)OC` [(R)-6, Methyl (5S,6R,E)-5,6-Dihydroxy-8-(3-((R)-1-hydroxyhexyl)quinoxalin-2-yl)oct-7-enoate], for which the “Rel. Slope” value in the assay with NF-κB stood at 57. The IC50 in the assay with NF-κB (LPS 50 ng/mL, 24 h, read-out: IC50) stood at 0.025 nM. Further, the “Potency Rel. Pot.” value with NF-κB amounted to 2.4. Besides, in the assay with NF-κB, the “Efficacy Rel. Eff.” value is 1.58. Also, the “Imax (%)” value in the assay with NF-κB (24 h) was found to be 38 ± 9%. The “(Single component) Rel. Score: Rel. Pot.” value in the assay with NF-κB was 1 (1 < x < 5). Also, the “(Single component) Rel. Score: Rel. Sl.” value in the assay with NF-κB is 2 (x ≥ 10). In addition, the “% relative to carageenan-induced level” value in the assay on C57bl/6 mice (4h) was 116%; in the assay with C57bl/6 mice (8h), 63%; in the assay on C57bl/6 mice (24h) it was 72%; in the assay with C57bl/6 mice (48h), 53%; in the assay with C57bl/6 mice (72h) it was 110%. Besides, in the assay on C57bl/6 mice (72h), the “% reduction relative to carageenan-induced level” value is listed as 10%. The “ΔΤR50: reduction of time taken to reduce the inflammatory response to 50% max” value with C57bl/6 mice ((R)-6 2 μg/kg ip, relative to vehicle-treated animals) is 6 h. Also, the “effect on inflammatory response (paw swelling), in words” value in the assay with C57bl/6 mice is recorded as “significantly reduced”. The “Paw swelling Index: Mean” value in the assay with C57bl/6 mice (Time 4h, 1% carrageenan) is 0.08; in the assay on C57bl/6 mice (Time 8h), 0.25; with C57bl/6 mice (Time 24h), 0.63; in the assay with C57bl/6 mice (Time 48h) it was 0.21; with C57bl/6 mice (Time 72h), 0.11. Also, the “Ca^2+ mobilization in wild-type HEK-293 cells” value with wild-type HEK-293 cells is “no calcium release was induced”.

Take `CCCCC[C@H](O)/C=C/C=C\C=C\C=C\[C@@H](O)[C@@H](O)CCCC(=O)O` [Compound 1, LXA4]: in the assay on NF-κB, the “Rel. Slope” value was determined as 1, the “Potency Rel. Pot.” value was determined as 1 and the “Efficacy Rel. Eff.” value is given as 1. In the assay with NF-κB (24 h), the “Imax (%)” value is 24 ± 1%. Also, in the assay on wild-type HEK-293 cells, the “Ca^2+ mobilization in wild-type HEK-293 cells” value is “without effect”.
